These results are taken from patent publication US20130259884A1, “PEPTIDES” ([…] SL, priority 2010, published 2013).

Where a SMILES comes first, the peptide text is derived from it.

The nature of this series: Water solubility of peptides when preparing stock solutions. It is filed as physicochemical. Particulars: stock solution in sterile distilled water or 100% DMSO; read-out: solubility of peptide (water soluble or water insoluble, dissolved in DMSO). How it is done: For challenge, peptides were administered as follows: • Individual peptides (soluble). Individual water soluble peptides were dissolved as 10, 5 or 2.5 mg/ml stock solutions in sterile distilled water. Before use, each peptide was diluted in water to 2 mg/ml and 10 μl of this 2 mg/ml mix was added to 990 μl of media. Then 100 μl of this peptide/media mix was added to 100 μl of media containing 350,000 PBMC in an ELISPOT anti-IL-4 coated cell culture plate well for a final peptide concentration of 10 μg/ml. Identically diluted media only was added to the cells and used for the no peptide media control wells (media only). • Individual peptides (DMSO). Individual water insoluble peptides were dissolved in 100% DMSO to a stock concentration of 50 mg/ml. Before use each peptide was diluted in water to 2 mg/ml and then 10 μl of the 2 mg/ml mix was added to 990 μl of cell-culture media. Then 100 μl of this peptide/media mix was added to 100 μl of media containing 350,000 PBMC in an ELISPOT anti-IL-4 coated cell culture plate well for a final peptide concentration of 10 μg/ml. Identically diluted media only was added to the cells and used for the no peptide media control wells (media only). • A combination preparation containing Alt a 1 soluble peptides (33.2, 34.3, 35.4, 35.5, 37.3.1, 37.4.1, L6-5.01, L10-1.01, L10-2.01, L10-3), called Alt a 1 Sol. Each peptide was diluted from water stock to 2 mg/ml in sterile distilled water. Then 10 μl of each peptide required for the combined preparation was mixed and brought up to 1 ml in media. Then 100 μl of this peptide/media mix was added to 100 μl of media containing 350,000 PBMC in an ELISPOT anti-IL-4 coated cell culture plate well for a final concentration of each peptide of 10 μg/ml. Identically diluted media only was used for the no peptide control wells (media only). • A combination preparation containing Alt a 1 DMSO peptides (32.2.1, 38.2.1, 35.2, 35.3, L6-2, L6-3, L6-4, 38.3, 37.2), called Alt a 1 DMSO. Each peptide was diluted from DMSO stock to 2 mg/ml in sterile distilled water. Then 10 μl of each peptide required for the combined preparation was mixed and brought up to 1 ml in media. Then 100 μl of this peptide/media mix is added to 100 μl of media containing 350,000 PBMC in an ELISPOT anti-IL-4 coated cell culture plate well for a final concentration of each peptide of 10 μg/ml. Identically diluted media only was used for the no peptide control wells (media only). • A combination preparation containing non-Alt a 1 soluble peptides (40.2, 41.2, 43.2, 44.2, 46.2, 47.2.1, 56.2, 57.2.1, 60.2, 62.2.1, 67.2, 71.3), called Alt a Other Sol. Each peptide was diluted from water stock to 2 mg/ml in sterile distilled water. Then 10 μl of each peptide required for the combined preparation was mixed and brought up to 1 ml in media, Then 100 μl of this peptide/media mix was added to 100 μl of media containing 350,000 PBMC in an ELISPOT anti-IL-4 coated cell culture plate well for a final concentration of each peptide at 10 μg/ml. Identically diluted media only was used for the no peptide control wells (media only). • A combination preparation containing non-Alt a 1 DMSO peptides (39.2, 42.2, 45.2, 48.2.1, 50.2, 51.2.1, 61.2.1, 66.3.1, 68.2.1, 70.2, 71.2, 72.2), called Alt a Other DMSO. Each peptide was diluted from DMSO stock to 2 mg/ml in sterile distilled water. Then 10 ul of each peptide required for the combined preparation was mixed and brought up to 1 ml in media, Then 100 μl of this peptide/media mix was added to 100 μl of media containing 350,000 PBMC in an ELISPOT anti-IL-4 coated cell culture plate well for a final concentration of each peptide at 10 μg/ml. Identically diluted media only was used for the no peptide control wells (media only).
By solubility is commonly meant how much of the substance goes into solution per volume. Take `CC[C@H](C)[C@H](NC(=O)[C@H](CC(N)=O)NC(=O)[C@H](Cc1ccccc1)NC(=O)CNC(=O)[C@H](CC(C)C)NC(=O)[C@@H](N)CO)C(=O)N[C@@H](CCCCN)C(=O)N[C@@H](C)C(=O)N[C@H](C(=O)N[C@@H](CC(N)=O)C(=O)NCC(=O)NCC(=O)N[C@H](C(=O)N[C@@H](CC(C)C)C(=O)N[C@@H](CC(=O)O)C(=O)O)[C@@H](C)O)[C@@H](C)O` [Peptide 35.4, SLGFNIKATNGGTLD] (H-SLGFNIKATNGGTLD-OH): the solubility was above 2500 µg/mL.

As to `CC(C)C[C@H](NC(=O)[C@H](CCC(N)=O)NC(=O)[C@H](Cc1c[nH]c2ccccc12)NC(=O)[C@H](Cc1c[nH]cn1)NC(=O)[C@H](CC(C)C)NC(=O)[C@@H](NC(=O)[C@H](CC(N)=O)NC(=O)[C@H](Cc1ccc(O)cc1)NC(=O)[C@H](CO)NC(=O)[C@H](CC(N)=O)NC(=O)[C@@H](NC(=O)[C@H](Cc1c[nH]c2ccccc12)NC(=O)[C@@H](NC(=O)[C@@H](NC(=O)CN)[C@@H](C)O)C(C)C)C(C)C)[C@@H](C)O)C(=O)O` [Peptide 72.2, GTVWVNSYNTLHWQL] (H-GTVWVNSYNTLHWQL-OH), the solubility was below 2500 µg/mL.

Turning to `CC[C@H](C)[C@H](NC(=O)[C@H](C)NC(=O)[C@H](Cc1c[nH]c2ccccc12)NC(=O)[C@@H](N)C(C)C)C(=O)N[C@H](C(=O)N[C@@H](CC(C)C)C(=O)N[C@@H](CC(C)C)C(=O)N[C@@H](CO)C(=O)N[C@@H](CC(C)C)C(=O)N[C@H](C(=O)N[C@@H](CCC(N)=O)C(=O)N[C@@H](CC(C)C)C(=O)N[C@H](C(=O)N[C@H](C(=O)N1CCC[C@H]1C(=O)O)[C@@H](C)O)[C@@H](C)O)C(C)C)C(C)C` [Peptide 48.2.1, VWAIVLLSLVQLTTP] (H-VWAIVLLSLVQLTTP-OH), the solubility was below 2500 µg/mL.

On to `CC[C@H](C)[C@H](NC(=O)[C@H](CO)NC(=O)[C@@H](NC(=O)[C@@H](NC(=O)[C@H](CCCCN)NC(=O)[C@@H](NC(=O)[C@@H](N)CCC(N)=O)[C@@H](C)O)[C@@H](C)O)C(C)C)C(=O)N[C@@H](CCCNC(=N)N)C(=O)N[C@@H](CC(C)C)C(=O)NCC(=O)N[C@@H](CC(=O)O)C(=O)N[C@H](C(=O)N[C@@H](CC(C)C)C(=O)N[C@@H](Cc1ccccc1)C(=O)NCC(=O)O)C(C)C` [Peptide 71.3, QTKTVSIRLGDVLFG] (H-QTKTVSIRLGDVLFG-OH), for which the solubility was above 2500 µg/mL.

On to `CC[C@H](C)[C@H](NC(=O)[C@H](CC(N)=O)NC(=O)[C@H](Cc1ccccc1)NC(=O)CNC(=O)[C@H](CC(C)C)NC(=O)[C@H](CO)NC(=O)[C@H](CC(N)=O)NC(=O)[C@H](Cc1ccc(O)cc1)NC(=O)[C@H](Cc1ccc(O)cc1)NC(=O)[C@@H](NC(=O)CN)[C@@H](C)O)C(=O)N[C@@H](CCCCN)C(=O)N[C@@H](C)C(=O)N[C@H](C(=O)N[C@@H](CC(N)=O)C(=O)O)[C@@H](C)O` [Peptide L6-4, GTYYNSLGFNIKATN] (H-GTYYNSLGFNIKATN-OH), for which the solubility was below 2500 µg/mL.

Consider `CC[C@H](C)[C@H](NC(=O)[C@H](Cc1ccc(O)cc1)NC(=O)[C@H](C)NC(=O)[C@H](CC(=O)O)NC(=O)[C@H](C)NC(=O)[C@@H](N)C(C)C)C(=O)N[C@H](C(=O)N[C@@H](CC(C)C)C(=O)N[C@H](C(=O)N[C@H](C(=O)N[C@@H](CC(C)C)C(=O)N1CCC[C@H]1C(=O)N[C@@H](CCCCN)C(=O)N[C@@H](CO)C(=O)N[C@@H](CO)C(=O)O)[C@@H](C)O)C(C)C)[C@@H](C)O` [Peptide 38.3, VADAYITLVTLPKSS], for which the solubility is below 2500 µg/mL.

For the molecule `CC[C@H](C)[C@H](NC(=O)[C@@H](N)CC(=O)O)C(=O)N[C@H](C(=O)N[C@@H](Cc1ccc(O)cc1)C(=O)N[C@H](C(=O)N[C@@H](C)C(=O)N[C@H](C(=O)N[C@@H](C)C(=O)N[C@H](C(=O)N[C@@H](CC(C)C)C(=O)N1CCC[C@H]1C(=O)N[C@@H](CC(N)=O)C(=O)N[C@@H](Cc1ccc(O)cc1)C(=O)N[C@H](C(=O)N[C@@H](CCCNC(=N)N)C(=O)O)C(C)C)[C@@H](C)O)[C@@H](C)O)C(C)C)[C@@H](C)O` [Peptide 37.3.1, DITYVATATLPNYVR] (H-DITYVATATLPNYVR-OH), the solubility was above 2500 µg/mL.

For `CC(C)C[C@H](NC(=O)[C@@H]1CCCN1C(=O)[C@H](C)NC(=O)[C@H](C)NC(=O)[C@H](C)NC(=O)[C@H](C)NC(=O)[C@H](CC(C)C)NC(=O)CNC(=O)[C@H](C)NC(=O)[C@H](C)NC(=O)[C@H](C)NC(=O)[C@H](Cc1ccccc1)NC(=O)[C@H](CC(C)C)NC(=O)[C@H](CO)NC(=O)[C@H](C)N)C(=O)O` [Peptide L6-3, ASLFAAAGLAAAAPL] (H-ASLFAAAGLAAAAPL-OH), the solubility is below 2500 µg/mL.

`CC[C@H](C)[C@H](NC(=O)CNC(=O)[C@@H](N)C(C)C)C(=O)N[C@@H](Cc1ccccc1)C(=O)N[C@@H](CCCNC(=N)N)C(=O)N[C@@H](CC(=O)O)C(=O)N[C@@H](CC(=O)O)C(=O)N[C@@H](CCCNC(=N)N)C(=O)N[C@H](C(=O)N[C@@H](CCC(=O)O)C(=O)N[C@H](C(=O)N[C@H](C(=O)N[C@@H](C)C(=O)N[C@@H](CC(N)=O)C(=O)N[C@@H](CC(=O)O)C(=O)O)[C@@H](C)CC)[C@@H](C)CC)[C@@H](C)CC` [Peptide 50.2, VGIFRDDRIEIIAND] (H-VGIFRDDRIEIIAND-OH; N-terminus and C-terminus assumed): the solubility is below 2500 µg/mL.

Turning to `CC(C)C[C@H](NC(=O)[C@@H](NC(=O)CNC(=O)[C@H](Cc1c[nH]c2ccccc12)NC(=O)CNC(=O)[C@H](C)NC(=O)CN)C(C)C)C(=O)N[C@H](C(=O)N[C@@H](CO)C(=O)N[C@@H](Cc1c[nH]cn1)C(=O)N[C@@H](CCCNC(=N)N)C(=O)N[C@@H](CO)C(=O)NCC(=O)N[C@@H](CCC(=O)O)C(=O)N[C@H](C(=O)O)[C@@H](C)O)C(C)C` [Peptide 62.2.1, GAGWGVLVSHRSGET] (H-GAGWGVLVSHRSGET-OH), the solubility was above 2500 µg/mL.

On to `CC[C@H](C)[C@H](NC(=O)[C@H](Cc1c[nH]cn1)NC(=O)CNC(=O)[C@H](CO)NC(=O)[C@H](CC(C)C)NC(=O)[C@H](CO)NC(=O)[C@H](CO)NC(=O)[C@@H](NC(=O)[C@@H](NC(=O)[C@@H](NC(=O)[C@H](CC(C)C)NC(=O)[C@H](CO)NC(=O)CNC(=O)[C@@H](N)[C@@H](C)O)C(C)C)[C@@H](C)CC)[C@@H](C)O)C(=O)N[C@@H](C)C(=O)O` [Peptide 47.2.1, TGSLVITSSLSGHIA] (H-TGSLVITSSLSGHIA-OH), for which the solubility is above 2500 µg/mL.

Take `CC[C@H](C)[C@H](NC(=O)[C@@H](NC(=O)[C@@H](NC(=O)[C@H](Cc1ccccc1)NC(=O)[C@H](CCC(N)=O)NC(=O)[C@@H](N)CC(C)C)[C@@H](C)O)[C@@H](C)O)C(=O)N[C@@H](C)C(=O)N[C@@H](CO)C(=O)N[C@@H](CC(C)C)C(=O)N[C@@H](Cc1ccccc1)C(=O)N[C@@H](C)C(=O)N[C@@H](C)C(=O)N[C@@H](C)C(=O)NCC(=O)N[C@@H](CC(C)C)C(=O)O` [Peptide 32.2.1, LQFTTIASLFAAAGL] (H-LQFTTIASLFAAAGL-OH): the solubility is below 2500 µg/mL.

As to `CC(C)C[C@H](NC(=O)[C@H](CCCCN)NC(=O)[C@H](CC(=O)O)NC(=O)[C@H](C)NC(=O)[C@H](CCC(N)=O)NC(=O)[C@H](C)NC(=O)[C@H](CO)NC(=O)[C@@H](NC(=O)[C@@H](NC(=O)[C@H](Cc1ccccc1)NC(=O)[C@H](CC(=O)O)NC(=O)[C@H](CC(C)C)NC(=O)[C@@H](NC(=O)CNC(=O)CN)[C@@H](C)O)[C@@H](C)O)C(C)C)C(=O)O` [Peptide L10-1.01, GGTLDFTVSAQADKL] (H-GGTLDFTVSAQADKL-OH), the solubility was above 2500 µg/mL.
